Measured values from patent publication US20250326743A1, “CRYSTAL FORMS OF TRIAZINE DIONE DERIVATIVE AND PREPARATION METHOD THEREFOR” (Jiangsu Hengrui Pharmaceuticals Co., Ltd., priority 2022, published 2025).

Legend:
Format in all cases: physicochemical
[1] = DVS (dynamic vapor sorption) hygroscopicity; conditions: for hygroscopic weight gain: DVS
Description: DVS refers to dynamic vapor sorption: The measurement was performed using SMS DVS Advantage; at 25° C., the humidity was changed as follows: 50%-95%-0%-95%-50%, in steps of 10% (5% for the last step) (specific humidity ranges are shown in corresponding patterns, and those listed here were used in most cases); the criterion was dm/dt being not greater than 0.002%.

[2] = Influencing factor stability study (30 days, open flasks)
[3] = Long-term/accelerated stability study (6 months)
[4] = Light exposure (4500 Lux), 5 days
[5] = Light exposure (4500 Lux), 10 days
[6] = Light exposure (4500 Lux), 30 days

With `Cc1ccc(F)c([C@H](C)Nc2nc(=O)n(C3CCOCC3)c(=O)[nH]2)c1` [crystal form B, (S)-6-((1-(2-fluoro-5-methylphenyl)ethyl)amino)-3-(tetrahydro-2H-pyran-4-yl)-1,3,5-triazine-2,4(1H,3H)-dione] the hygroscopic weight gain ([1]; accelerated conditions, 70% RH) was “about 0.298%”, the hygroscopic weight gain ([1]; extreme conditions, 90% RH) was “about 0.418%” and the hygroscopic weight gain ([1]; normal storage conditions, 60% RH) was “about 0.242%”. The “crystal form after DVS testing” value ([1]; after DVS testing) was “did not change”, the Color and state ([2]; 40° C., 5 days) was “Off-white solid” and the Crystal form ([2]; 40° C., 5 days) was “No change”. For the same compound, the Purity % ([2]; 40° C., 5 days) was 99.8%, the Color and state ([2]; 40° C., 10 days) was “Off-white solid” and the Crystal form ([2]; 40° C., 10 days) was “No change”. The Purity % ([2]; 40° C., 10 days) was 99.9%, the Color and state ([2]; 40° C., 30 days) was “Off-white solid” and the Crystal form ([2]; 40° C., 30 days) was “No change”. For the same compound, the Purity % ([2]; 40° C., 30 days) was 99.9%, the Color and state ([2]; 60° C., 5 days) was “Off-white solid” and the Crystal form ([2]; 60° C., 5 days) was “No change”. The Purity % ([2]; 60° C., 5 days) was 99.9%, the Color and state ([2]; 60° C., 10 days) was “Off-white solid” and the Crystal form ([2]; 60° C., 10 days) was “No change”. For the same compound, the Purity % ([2]; 60° C., 10 days) was 99.9%, the Color and state ([2]; 60° C., 30 days) was “Off-white solid” and the Crystal form ([2]; 60° C., 30 days) was “No change”. For the same compound, the Purity % ([2]; 60° C., 30 days) was 99.9%, the Color and state ([2]; 75% RH, 5 days) was “Off-white solid” and the Crystal form ([2]; 75% RH, 5 days) was “No change”. For the same compound, the Purity % ([2]; 75% RH, 5 days) was 99.8%, the Color and state ([2]; 75% RH, 10 days) was “Off-white solid” and the Crystal form ([2]; 75% RH, 10 days) was “No change”. For the same compound, the Purity % ([2]; 75% RH, 10 days) was 99.8%, the Color and state ([2]; 75% RH, 30 days) was “Off-white solid” and the Crystal form ([2]; 75% RH, 30 days) was “No change”. The Purity % ([2]; 75% RH, 30 days) was 99.8%, the Color and state ([2]; 92.5% RH, 5 days) was “Off-white solid” and the Crystal form ([2]; 92.5% RH, 5 days) was “No change”. The Purity % ([2]; 92.5% RH, 5 days) was 99.9%, the Color and state ([2]; 92.5% RH, 10 days) was “Off-white solid” and the Crystal form ([2]; 92.5% RH, 10 days) was “No change”. For the same compound, the Purity % ([2]; 92.5% RH, 10 days) was 99.9%, the Color and state ([2]; 92.5% RH, 30 days) was “Off-white solid” and the Crystal form ([2]; 92.5% RH, 30 days) was “No change”. For the same compound, the Purity % ([2]; 92.5% RH, 30 days) was 99.9%, the Color and state ([2]; Initial, 0 days) was “Off-white solid” and the Purity % ([2]; Initial, 0 days) was 99.9%. The Color and state [2, 4] was “Off-white solid”, the Crystal form [2, 4] was “No change” and the Purity % [2, 4] was 99.9%. The Color and state [2, 5] was “Off-white solid”, the Crystal form [2, 5] was “No change” and the Purity % [2, 5] was 99.9%. For the same compound, the Color and state [2, 6] was “Off-white solid”, the Crystal form [2, 6] was “No change” and the Purity % [2, 6] was 99.9%. The “physical and chemical stability (conclusion)” value ([2]; light exposure, 40° C. and 60° C., 75% RH and 92.5% RH, 30 days) was “both good physical stability and good chemical stability”, the “physical and chemical stability (conclusion)” value ([3]; 25° C. with 60% RH and 40° C. with 75% RH, 6 months) was “both good physical stability and good chemical stability” and the Crystal form ([3]; 25° C./60% RH, 1 month) was “No change”. For the same compound, the “Purity %” value ([3]; 25° C./60% RH, 1 month) was 99.8%, the Crystal form ([3]; 25° C./60% RH, 2 months) was “No change” and the “Purity %” value ([3]; 25° C./60% RH, 2 months) was 99.8%. For the same compound, the Crystal form ([3]; 25° C./60% RH, 3 months) was “No change”, the “Purity %” value ([3]; 25° C./60% RH, 3 months) was 99.9% and the Crystal form ([3]; 25° C./60% RH, 6 months) was “No change”. The “Purity %” value ([3]; 25° C./60% RH, 6 months) was 99.9%, the Crystal form ([3]; 40° C./75% RH, 1 month) was “No change” and the “Purity %” value ([3]; 40° C./75% RH, 1 month) was 99.9%. For the same compound, the Crystal form ([3]; 40° C./75% RH, 2 months) was “No change”, the “Purity %” value ([3]; 40° C./75% RH, 2 months) was 99.9% and the Crystal form ([3]; 40° C./75% RH, 3 months) was “No change”. For the same compound, the “Purity %” value ([3]; 40° C./75% RH, 3 months) was 99.9%, the Crystal form ([3]; 40° C./75% RH, 6 months) was “No change” and the “Purity %” value ([3]; 40° C./75% RH, 6 months) was 99.9%. For the same compound, the “Purity %” value ([3]; Initial) was 99.9%.
